From PMC11525786, “In silico and pharmacological evaluation of GPR65 as a cancer immunotherapy target regulating T-cell functions” (Frontiers in Immunology, 2024)

Target: T1, GPR65 (Homo sapiens, UniProt Q8IYL9)
T1 construct: GPR65 overexpressed in A375 cells (rCD2-GPR65 tandem lentivector)
Assay: HTRF cAMP induction in GPR65-overexpressing A375 cells ([…] agonist, pH […]), blocked by GPR65 antagonists
Format: cell-based

T1 sequence (Q8IYL9 whole entry): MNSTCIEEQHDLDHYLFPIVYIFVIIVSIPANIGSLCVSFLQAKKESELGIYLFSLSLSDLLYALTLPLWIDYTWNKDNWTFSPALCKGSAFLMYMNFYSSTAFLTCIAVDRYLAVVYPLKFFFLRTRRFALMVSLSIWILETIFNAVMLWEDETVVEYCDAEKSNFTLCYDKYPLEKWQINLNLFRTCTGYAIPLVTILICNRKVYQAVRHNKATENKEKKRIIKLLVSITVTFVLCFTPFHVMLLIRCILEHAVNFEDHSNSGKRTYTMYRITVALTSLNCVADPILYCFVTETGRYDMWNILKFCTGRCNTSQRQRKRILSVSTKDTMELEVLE

SMILES: CN1N=C(SCc2ccc(Cl)cc2Cl)Sc2c1cnn(C)c2=O [BTB09089, 3-[(2,4-dichlorobenzyl)thio]-1,6-dimethyl-5,6-dihydro-1H-pyridazino [4,5-e][1,3,4]thiadiazin-5-one]
- HTRF cAMP induction in GPR65-overexpressing A375 cells (1 μM agonist, pH 7.5), b: capacity to inhibit cAMP biosynthesis upon GPR65 activation by BTB09089
